Data reported in ChEMBL document CHEMBL1201862, “PubChem BioAssay data set” (2004).
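Method: 48-hour compound exposure of cells in 96-well plates, five concentrations, linear interpolation of endpoints. The concentration for 50% growth inhibition is given as GI50.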 Calls of active or inactive are those of the source. No stated cut-off is given here; in the data, active = GI50 up to about 1.1 µM and inactive = higher.

Experiments:
Assay in all cases: DTP human tumour cell line panel, 48 h
[1] = tested on: IGROV-1
[2] = tested on: BT-549
[3] = tested on: OVCAR-4
[4] = tested on: OVCAR-8
[5] = tested on: SW-620
[6] = tested on: SNB-75
[7] = tested on: MOLT-4
[8] = tested on: RXF 393
[9] = tested on: NCI/ADR-RES
[10] = tested on: MCF7
[11] = tested on: NCI-H23
[12] = tested on: CAKI-1
[13] = tested on: PC-3
[14] = tested on: U-251
[15] = tested on: CCRF-CEM
[16] = tested on: SNB-19
[17] = tested on: HT-29
[18] = tested on: SF-539
[19] = tested on: T47D
[20] = tested on: ACHN

Row | Structure (SMILES) | GI50 [1] | GI50 [2] | GI50 [3] | GI50 [4] | GI50 [5] | GI50 [6] | GI50 [7] | GI50 [8] | GI50 [9] | GI50 [10] | GI50 [11] | GI50 [12] | GI50 [13] | GI50 [14] | GI50 [15] | GI50 [16] | GI50 [17] | GI50 [18] | GI50 [19] | GI50 [20]
1 | COc1cc(C2c3cc4c(cc3OC(N3CCCCC3)C2C)OCO4)cc(OC)c1OC (centres undefined) | 4.62 µM (inactive) | 18.9 µM (inactive) | 13 µM (inactive) | 5.11 µM (inactive) | 3.2 µM (inactive) | 4.47 µM (inactive) | 3.9 µM (inactive) | 2.15 µM (inactive) | 3.17 µM (inactive) | 1.44 µM (inactive) | 3.41 µM (inactive) | 2.46 µM (inactive) | 3.5 µM (inactive) | 3.2 µM (inactive) | 2.84 µM (inactive) | 3.24 µM (inactive) | 3.04 µM (inactive) | 2.2 µM (inactive) | 4.23 µM (inactive) | 6.79 µM (inactive)
2 | CC1CCC(O)/C=C/C(=O)OC(C)C(O)/C=C/C(=O)O1 (centres undefined) | > 100 µM (inactive) | 41.8 µM (inactive) | > 100 µM (inactive) | > 100 µM (inactive) | 60.4 µM (inactive) | > 100 µM (inactive) | 19.1 µM (inactive) | > 62.1 µM (inactive) | > 100 µM (inactive) | > 92.9 µM (inactive) | > 73.5 µM (inactive) | > 100 µM (inactive) | > 100 µM (inactive) | > 100 µM (inactive) | 25.4 µM (inactive) | > 100 µM (inactive) | > 100 µM (inactive) | > 86.7 µM (inactive) | > 100 µM (inactive) | > 68.4 µM (inactive)
3 | O=C(O)C(C(=O)O)P(=S)(S)c1ccccc1 (centres undefined) | > 100 µM (inactive) | > 100 µM (inactive) | > 100 µM (inactive) | > 100 µM (inactive) | > 100 µM (inactive) | > 100 µM (inactive) | > 30.4 µM (inactive) | > 100 µM (inactive) | > 100 µM (inactive) | > 100 µM (inactive) | > 100 µM (inactive) | > 100 µM (inactive) | > 100 µM (inactive) | > 100 µM (inactive) | > 100 µM (inactive) | > 100 µM (inactive) | > 100 µM (inactive) | > 100 µM (inactive) | > 100 µM (inactive) | > 100 µM (inactive)
4 | NCCCCN(CCCN)Cc1ccccc1 | 60 µM (inactive) | > 100 µM (inactive) | > 100 µM (inactive) | > 100 µM (inactive) | > 100 µM (inactive) | 20.1 µM (inactive) | > 100 µM (inactive) | > 100 µM (inactive) | > 100 µM (inactive) | > 100 µM (inactive) | > 100 µM (inactive) | > 100 µM (inactive) | > 100 µM (inactive) | > 100 µM (inactive) | > 100 µM (inactive) | > 100 µM (inactive) | > 100 µM (inactive) | > 100 µM (inactive) | > 100 µM (inactive) | > 100 µM (inactive)
5 | Cc1c2cc[n+](C)cc2c(C)c2c1[nH]c1ccc(O)cc12 [ELLIPTINIUM ACETATE] | 16.6 µM (inactive) | 3.71 µM (inactive) | 38.3 µM (inactive) | 11.6 µM (inactive) | 14 µM (inactive) | 2.36 µM (inactive) | 0.241 µM (active) | 62.5 µM (inactive) | 61.7 µM (inactive) | 8.75 µM (inactive) | 8.91 µM (inactive) | 47.4 µM (inactive) | 28.4 µM (inactive) | 1.32 µM (inactive) | 4.82 µM (inactive) | 0.904 µM (active) | 62.4 µM (inactive) | 12 µM (inactive) | 0.251 µM (active) | 
